This note sets out measurements from US8034937B2, “Azaspiro derivatives” (Hoffmann-La Roche Inc., priority 2006, dated 2011).

The target in this test is T1, human V1a receptor (Homo sapiens, UniProt P37288).
T1 construct: expressed in transfected cells; host or cells: HEK293 cells, transiently transfected; membranes prepared
In words: human V1a receptor binding (3H-Vasopressin SPA, HEK293 membranes). Conditions: 3H-Vasopressin displacement, membranes of HEK293 cells transiently transfected with human V1a; Ki by Cheng-Prussoff; read-out: pKi (hV1a) (converted). How it is done: The human V1a receptor was cloned by RT-PCR from total human liver RNA. The coding sequence was subcloned in an expression vector after sequencing to confirm the identity of the amplified sequence. […] Cell membranes were prepared from HEK293 cells transiently transfected with the expression vector and grown in 20 liter fermenters with the following protocol.
50 g of cells were resuspended in 30 ml freshly prepared ice cold Lysis buffer (50 mM HEPES, 1 mM EDTA, 10 mM MgCl2 adjusted to pH=7.4+complete cocktail of protease inhibitor (Roche Diagnostics)); homogenized with Polytron for 1 min, and sonicated on ice for 2×2 minutes at 80% intensity (Vibracell sonicator). The preparation was centrifuged 20 min at 500 g at 4° C., the pellet was discarded and the supernatant centrifuged 1 hour at 43,000 g at 4° C. (19,000 rpm). The pellet was resuspended in 12.5 ml Lysis buffer+12.5 ml Sucrose 20% and homogenized using a Polytron for 1-2 min. The protein concentration was determined by the Bradford method and aliquots were stored at −80° C. until use. For binding studies 60 mg Yttrium silicate SPA beads (Amersham) were mixed with an aliquot of membrane in binding buffer (50 mM Tris, 120 mM NaCl, 5 mM KCl, 2 mM CaCl2, 10 mM MgCl2) for 15 minutes with mixing. 50 ul of bead/membrane mixture was then added to each well of a 96 well plate, followed by 50 ul of 4 nM 3H-Vasopressin (American Radiolabeled Chemicals). For total binding measurement 100 ul of binding buffer were added to the respective wells, for non-specific binding 100 ul of 8.4 mM cold vasopressin and for compound testing 100 ul of a serial dilution of each compound in 2% DMSO. The plate was incubated 1 h at room temperature, centrifuged 1 min at 1000 g and counted on a Packard Top-Count. Non-specific binding counts wee subtracted from each well and data was normalized to the maximum specific binding set at 100%. To calculate an IC 50 the curve was fitted using a non-linear regression model (XLfit), and the Ki was calculated using the Cheng-Prussoff equation.

Counter-ions that a name gives are not always drawn.

T1 sequence (P37288 whole entry): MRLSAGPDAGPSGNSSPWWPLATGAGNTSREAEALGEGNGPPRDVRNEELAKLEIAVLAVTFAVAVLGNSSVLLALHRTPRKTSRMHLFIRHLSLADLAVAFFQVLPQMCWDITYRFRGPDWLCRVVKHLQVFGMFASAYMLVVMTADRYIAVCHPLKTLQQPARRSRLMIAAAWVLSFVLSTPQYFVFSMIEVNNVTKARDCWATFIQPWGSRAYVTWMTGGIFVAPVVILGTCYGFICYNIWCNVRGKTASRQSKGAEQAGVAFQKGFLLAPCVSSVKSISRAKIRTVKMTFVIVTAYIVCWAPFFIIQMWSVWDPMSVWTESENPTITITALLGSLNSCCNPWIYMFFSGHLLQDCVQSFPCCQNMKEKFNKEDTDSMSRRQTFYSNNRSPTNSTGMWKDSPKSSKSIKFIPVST

As for `CN1CCC[C@H]1Cn1cc(C(=O)N2CCC3(CC2)OCc2ccncc23)c2ccc(Cl)cc21` [Compound 13, 1′-[(6-Chloro-1-{[(2S)-1-methylpyrrolidin-2-yl]methyl}-1H-indol-3-yl)carbonyl]-1H-spiro[furo[3,4-c]pyridine-3,4′-piperidine]], the Ki was 1.1 nM. For `O=C(c1c[nH]c2cc(Cl)ccc12)N1CCC2(CC1)OCc1cccnc12` [Compound 6, 1′-[(6-Chloro-1H-indol-3-yl)carbonyl]-5H-spiro[furo[3,4-b]pyridine-7,4′-piperidine]], the Ki was 5.25 nM. Then `O=C(c1c[nH]c2cc(Cl)ccc12)N1CCC2(CC1)OCc1ccncc12` [Compound 10, 1′-[(6-Chloro-1H-indol-3-yl)carbonyl]-1H-spiro[furo[3,4-c]pyridine-3,4′-piperidine]], with 8.71 nM.

As to `CC(C)(C)OC(=O)N1CCC[C@H]1Cn1cc(C(=O)N2CCC3(CC2)OCc2ccncc23)c2ccc(Cl)cc21` [Compound 11, tert-Butyl (2S)-2-{[6-chloro-3-(1H, 1′H-spiro[furo[3,4-c]pyridine-3,4′-piperidin]-1′-ylcarbonyl)-1H-indol-1-yl]methyl}pyrrolidine-1-carboxylate], the Ki was 23.4 nM.

For `O=C(c1cn(Cc2cc(F)cc(F)c2)c2cc(Cl)ccc12)N1CCC2(CC1)OCc1ncccc12` [Compound 5, 1′-{[6-Chloro-1-(3,5-difluorobenzyl)-1H-indol-3-yl]carbonyl}-7H-spiro[furo[3,4-b]pyridine-5,4′-piperidine]], the Ki is 4.37 nM. `O=C(c1cn(C[C@@H]2CCCN2)c2cc(Cl)ccc12)N1CCC2(CC1)OCc1ncccc12` [Compound 3, 1′-({6-Chloro-1-[(2S)-pyrrolidin-2-ylmethyl]-1H-indol-3-yl}carbonyl)-7H-spiro[furo[3,4-b]pyridine-5,4′-piperidine]dihydrochloride]: the Ki is 25.1 nM. Under `O=C(c1cn(C[C@@H]2CCCN2)c2cc(Cl)ccc12)N1CCC2(CC1)OCc1cccnc12` [Compound 8, 1′-({6-Chloro-1-[(2S)-pyrrolidin-2-ylmethyl]-1H-indol-3-yl}carbonyl)-5H-spiro[furo[3,4-b]pyridine-7,4′-piperidine]dihydrochloride] stands 3.31 nM; under `CC(C)(C)OC(=O)N1CCC[C@H]1Cn1cc(C(=O)N2CCC3(CC2)OCc2cccnc23)c2ccc(Cl)cc21` [Compound 7, tert-Butyl (2S)-2-{[6-chloro-3-(1′H,5H-spiro[furo[3,4-b]pyridine-7,4′-piperidin]-1′-ylcarbonyl)-1H-indol-1-yl]methyl}pyrrolidine-1-carboxylate], 22.9 nM. For `CN1CCC[C@H]1Cn1cc(C(=O)N2CCC3(CC2)OCc2cccnc23)c2ccc(Cl)cc21` [Compound 9, 1′-[(6-Chloro-1-1{[(2S)-1-methylpyrrolidin-2-yl]methyl}-1H-indol-3-yl)carbonyl]-5H-spiro[furo[3,4-b]pyridine-7,4′-piperidine]], the Ki is 1 nM. Under `O=C(c1cn(C[C@@H]2CCCN2)c2cc(Cl)ccc12)N1CCC2(CC1)OCc1ccncc12` [Compound 12, 1′-({6-Chloro-1-[(2S)-pyrrolidin-2-ylmethyl]-1H-indol-3-yl}carbonyl)-1H-spiro[furo[3,4-c]pyridine-3,4′-piperidine]dihydrochloride] stands 4.57 nM; under `CN1CCC[C@H]1Cn1cc(C(=O)N2CCC3(CC2)OCc2ncccc23)c2ccc(Cl)cc21` [Compound 4, 1′-[(6-Chloro-1-{[(2S)-1-methylpyrrolidin-2-yl]methyl}-1H-indol-3-yl)carbonyl]-7H-spiro[furo[3,4-b]pyridine-5,4′-piperidine]], 1.55 nM. Regarding `O=C(c1cn(Cc2cc(F)cc(F)c2)c2cc(Cl)ccc12)N1CCC2(CC1)OCc1cccnc12` [Compound 14, 1′-{[6-Chloro-1-(3,5-difluorobenzyl)-1H-indol-3-yl]carbonyl}-5H-spiro[furo[3,4-b]pyridine-7,4′-piperidine]], the Ki was 4.27 nM.
